Assay results taken from PMC12472512, “Design, Synthesis, In Silico Docking, Multitarget Bioevaluation and Molecular Dynamic Simulation of Novel Pyrazolo[3,4-d]Pyrimidinone Derivatives as Potential In Vitro and In Vivo Anti-Inflammatory Agents” (Pharmaceuticals, 2025).
Entries after “also recorded” stand apart in the source; their conditions may differ.

How the values were obtained:
[1] = tested on: carrageenan-induced paw edema; test: In vivo carrageenan-induced paw edema; settings: 50 mg/kg oral, mice
gastric mucosa = test: Histopathological examination of stomach sections (H&E)
human recombinant COX-2 = biological target: T1, human recombinant COX-2 (Homo sapiens, UniProt P35354); test: In vitro COX-2 inhibition, fluorescent inhibitor screening assay kit; settings: for inhibitory activity on COX-2: at a concentration of 100 μM
T1 sequence (P35354 18-604): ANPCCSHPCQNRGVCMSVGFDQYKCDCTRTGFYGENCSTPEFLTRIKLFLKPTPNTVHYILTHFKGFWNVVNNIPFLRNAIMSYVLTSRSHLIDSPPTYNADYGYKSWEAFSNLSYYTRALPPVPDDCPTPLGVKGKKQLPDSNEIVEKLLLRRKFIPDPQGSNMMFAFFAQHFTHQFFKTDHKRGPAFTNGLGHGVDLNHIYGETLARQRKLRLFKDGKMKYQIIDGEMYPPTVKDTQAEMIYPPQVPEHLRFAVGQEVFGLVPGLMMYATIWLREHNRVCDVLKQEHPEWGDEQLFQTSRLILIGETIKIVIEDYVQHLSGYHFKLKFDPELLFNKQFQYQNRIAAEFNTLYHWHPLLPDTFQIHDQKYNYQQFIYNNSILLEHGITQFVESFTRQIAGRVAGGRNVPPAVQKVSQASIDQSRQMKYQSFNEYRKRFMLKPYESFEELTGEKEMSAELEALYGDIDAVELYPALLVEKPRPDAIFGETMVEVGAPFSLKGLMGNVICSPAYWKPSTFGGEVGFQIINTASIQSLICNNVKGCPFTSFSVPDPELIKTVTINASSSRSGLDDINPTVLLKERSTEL
Protocol: (§1) Test compounds, dissolved in DMSO, and were pre-incubated with the enzymes at 37 °C for 5 min before initiating the reaction with 1 mM arachidonic acid under light-protected conditions. The fluorescence was measured using a multi-well spectrophotometer (fluorescence plate reader). […] The percentage inhibition was calculated by comparing the absorbance values of the compounds to the vehicle control.
(§2) This protocol utilizes a colorimetric assay to measure the peroxidase activity of Prostaglandin G/H
(§3) Synthase (COX enzyme). The COX enzyme converts Arachidonic Acid (AA) to Prostaglandin G2
(§4) (PGG2), which is then reduced to Prostaglandin H2 (PGH2) by the inherent peroxidase activity.
(§5) peroxidase reaction co-oxidizes a chromogen, such as N,N,N',N'-Tetramethyl-p-phenylenediamine
(§6) (TMPD), resulting in a colored product that can be measured spectrophotometrically at 590-630 nm.
(§7) inhibition of COX enzyme by a test compound reduces the formation of this colored product, allowing
(§8) for the calculation of percentage inhibition and subsequent IC50 values.
(§9) o Ovine COX-1 (purified, commercially available)
(§10) • Substrate: Arachidonic Acid (AA). Prepare a stock solution in ethanol. Note: AA is unstable;
(§11) aliquot and store under inert gas (e.g., Argon) at -80°C.
(§12) • Cofactor: Hemin. Prepare a stock solution in DMSO.
(§13) • Chromogen: N,N,N',N'-Tetramethyl-p-phenylenediamine (TMPD) dihydrochloride.
(§14) • Assay Buffer: 100 mM Tris-HCl buffer, pH 8.0. May contain 1-5 mM EDTA and 1-2 µM
Phenol (acts as a cofactor for COX-2).
(§15) • Solvents: Dimethyl Sulfoxide (DMSO), Ethanol (absolute).
(§16) consistent across all wells (typically ≤1% final concentration).
o Keep all dilutions on ice.
(§17) o COX-1 Working Solution: Dilute ovine COX-1 in ice-cold assay buffer to a final
(§18) concentration of ~50-100 U/mL. Add Hemin to a final concentration of 1 µM.
(§19) o Note: The exact enzyme units (U) required must be determined by a preliminary activity
(§20) test to ensure the reaction is linear and within the dynamic range of the assay.
(§21) Substrate/Chromogen Solution (Prepare Fresh):
(§22) o To a tube containing assay buffer, add TMPD to a final concentration of 0.2-0.5 mM.
(§23) o Add Arachidonic Acid to a final concentration of 100 µM. Vortex gently.
(§24) o Keep this solution protected from light and on ice until use.
(§25) Assay Setup (Performed in duplicate or triplicate)

COX-1 = biological target: T2, COX-1 (Ovis aries, UniProt P05979); test: In vitro COX-1 inhibition, fluorescent inhibitor screening assay kit; settings: for inhibitory activity on COX-1: at a concentration of 100 μM
T2 sequence (P05979 25-600): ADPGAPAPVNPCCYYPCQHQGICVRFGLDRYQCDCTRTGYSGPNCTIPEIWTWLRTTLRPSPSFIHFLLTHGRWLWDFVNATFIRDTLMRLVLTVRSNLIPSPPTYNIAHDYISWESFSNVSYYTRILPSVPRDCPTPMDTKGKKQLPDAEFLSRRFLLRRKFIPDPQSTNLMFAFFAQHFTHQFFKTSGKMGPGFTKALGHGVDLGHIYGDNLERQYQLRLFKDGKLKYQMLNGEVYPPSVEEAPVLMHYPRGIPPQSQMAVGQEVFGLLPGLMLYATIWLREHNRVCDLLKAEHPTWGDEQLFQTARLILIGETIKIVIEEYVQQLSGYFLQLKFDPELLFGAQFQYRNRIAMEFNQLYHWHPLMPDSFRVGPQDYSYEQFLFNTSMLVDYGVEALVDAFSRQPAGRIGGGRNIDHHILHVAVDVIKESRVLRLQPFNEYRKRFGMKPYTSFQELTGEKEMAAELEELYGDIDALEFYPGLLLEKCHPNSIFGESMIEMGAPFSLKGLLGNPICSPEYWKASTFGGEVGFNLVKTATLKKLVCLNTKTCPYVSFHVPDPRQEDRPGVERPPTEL
Protocol: as §1, §2, §3, §4, §5, §6, §7, §8, §9, §10, §11, §12, §13, §14
Phenol (acts as a cofactor for COX-2).
as §15, §16
o Keep all dilutions on ice.
as §17, §18, §19, §20, §21, §22, §23, §24, §25

TNF-α = test: ELISA of serum TNF-α in carrageenan-treated mice; type: in vivo; settings: 50 mg/kg; carrageenan-treated mice at 3 h; compared to the control group
Protocol: To evaluate the anti-inflammatory mechanisms of these compounds, two key chemical mediators, TNF-α and IL-6, were assessed using enzyme-linked immunosorbent assay (ELISA).
All mice were sacrificed under anesthesia using ketamine/xylazine (50/15 mg/kg). Blood was collected for the ELISA assays to determine the levels of cytokines TNF-α and IL-6 using the Rat IL6 (Interleukin 6) ELISA Kit and Rat TNFα ELISA Kit (MyBioSource, San Diego, CA, USA), in accordance with the manufacturer’s instructions. The quantitative sandwich enzyme immunoassay technique is the fundamental principle of the TNF-α assay. A microplate was pre-coated with an antibody specific for TNF-α. Standards and samples were pipetted into the wells, and the immobilized antibody bound to any TNF-α that was present. A biotin-conjugated antibody that was specific for TNF-α was introduced to the wells after any unbound substances were removed. Horseradish peroxidase (HRP) conjugated with avidin was introduced to the wells subsequent to the cleaning process. After a wash to eliminate any unbound avidin–enzyme reagent, a substrate solution was introduced to the wells, and the color developed in proportion to the quantity of TNF-α bound in the initial step. The color development was halted, and the color intensity was quantified. Additionally, the Sandwich enzyme immunoassay is the test principle utilized for IL-6. The microtiter plates included in this preparation were pre-coated with an antibody that was specific to Rat IL6. A biotin-conjugated antibody specific to Rat IL6 was then added to the appropriate microtiter plate wells along with standards or samples. Subsequently, each microplate well was incubated with avidin conjugated to horseradish peroxidase (HRP). […] The addition of sulfuric acid solution terminated the enzyme–substrate reaction, and the color change was observed spectrophotometrically at a wavelength of 450 nm ± 10 nm. The concentration of Rat IL6 in the samples was subsequently determined by comparing the OD of the samples to the standard curve.
Blood was collected immediately following the decapitation of mice, performed in accordance with the institutional animal care and use committee (IACUC) guidelines. After decapitation, whole blood was allowed to flow freely and was collected directly into EDTA and heparinized tubes. The whole blood was centrifuged at 3000× g for 10 min at 4 °C, and the plasma was carefully collected and stored at –80 °C until further analysis.

Cc1ccc(-c2cc(C(F)(F)F)nn2-c2ccc(S(N)(=O)=O)cc2)cc1 [Celecoxib, celecoxib, reference compound]
Percentage of inhibition of carrageenan-induced paw edema ([1]; 1 h): 0.31% | Percentage of inhibition of carrageenan-induced paw edema ([1]; 2 h): 44.88% | Percentage of inhibition of carrageenan-induced paw edema ([1]; 3 h): 56.14% | histological structure of the gastric mucosa (gastric mucosa; stomach sections stained with H&E, 50 mg/kg): normal gastric mucosal histology; also recorded: normal histological structure of the gastric mucosa

O=C(Cn1cnc2c(cnn2-c2ccccc2)c1=O)Nc1ccccc1 [Compound 5a, 2-(4-Oxo-1-Phenyl-1,4-Dihydro-5H-Pyrazolo[3,4-d]Pyrimidin-5-yl)-N-Phenyl Acetamide]
inhibitory activity on COX-2 (human recombinant COX-2): no inhibitory activity | inhibitory activity on COX-1 (COX-1): no inhibitory activity

O=C(Cn1cnc2c(cnn2-c2ccccc2)c1=O)Nc1ccc(Br)cc1 [Compound 5c, N-(4-Bromophenyl)-2-(4-Oxo-1-Phenyl-1,4-Dihydro-5H-Pyrazolo[3,4-d]Pyrimidin-5-yl) Acetamide]
IC50 (human recombinant COX-2): > 100 µM | inhibitory activity on COX-2 (human recombinant COX-2): no inhibitory activity | inhibitory activity on COX-1 (COX-1): no inhibitory activity

COc1ccccc1NC(=O)Cn1cnc2c(cnn2-c2ccccc2)c1=O [Compound 5h, N-(2-Methoxyphenyl)-2-(4-Oxo-1-Phenyl-1,4-Dihydro-5H-Pyrazolo[3,4-d]Pyrimidin-5-yl) Acetamide]
inhibitory activity on COX-2 (human recombinant COX-2): no inhibitory activity | inhibitory activity on COX-1 (COX-1): no inhibitory activity

Cc1cccc(NC(=O)Cn2cnc3c(cnn3-c3ccccc3)c2=O)c1 [Compound 5f, 2-(4-Oxo-1-Phenyl-1,4-Dihydro-5H-Pyrazolo[3,4-d]Pyrimidin-5-yl)-N-(m-Tolyl) Acetamide]
inhibitory activity on COX-2 (human recombinant COX-2): no inhibitory activity | inhibitory activity on COX-1 (COX-1): no inhibitory activity

COc1ccc(NC(=O)Cn2cnc3c(cnn3-c3ccccc3)c2=O)cc1 [Compound 5i, N-(4-Methoxyphenyl)-2-(4-Oxo-1-Phenyl-1,4-Dihydro-5H-Pyrazolo[3,4-d]Pyrimidin-5-yl) Acetamide]
inhibitory activity on COX-2 (human recombinant COX-2): no inhibitory activity | inhibitory activity on COX-1 (COX-1): no inhibitory activity

O=C(Cn1cnc2c(cnn2-c2ccccc2)c1=O)Nc1ccc([N+](=O)[O-])cc1 [Compound 5d, N-(4-Nitrophenyl)-2-(4-oxo-1-phenyl-1,4-dihydro-5H-pyrazolo[3,4-d]pyrimidin-5-yl) Acetamide]
IC50 (human recombinant COX-2): 0.49 ± 0.017 µM | SI, in vitro COX-2 selectivity index (COX-1 IC50/COX-2 IC50) (human recombinant COX-2; COX-1 IC50/COX-2 IC50): 28.73 | COX2 %inh (human recombinant COX-2; conc 0.01 (uM)): -402% | COX2 %inh (human recombinant COX-2; conc 0.1 (uM)): -301% | COX2 %inh (human recombinant COX-2; conc 1 (uM)): -167% | COX2 %inh (human recombinant COX-2; conc 10 (uM)): -15% | COX2 %inh (human recombinant COX-2; conc 100 (uM)): 76.6% | Percentage of inhibition of carrageenan-induced paw edema ([1]; 1 h): 3.43% | Percentage of inhibition of carrageenan-induced paw edema ([1]; 2 h): 21.26% | Percentage of inhibition of carrageenan-induced paw edema ([1]; 3 h): 27.32% | IC50 (COX-1): 14.1 ± 0.47 µM | COX1 %inh (COX-1; conc 0.01 (uM)): 0.25% | COX1 %inh (COX-1; conc 0.1 (uM)): 1.77% | COX1 %inh (COX-1; conc 1 (uM)): 8.07% | COX1 %inh (COX-1; conc 10 (uM)): 49.5% | COX1 %inh (COX-1; conc 100 (uM)): 76% | TNF-α levels in serum (TNF-α): No significant differences | histological structure of the gastric mucosa (gastric mucosa; stomach sections stained with H&E; 50 mg/kg): normal histological structure of the gastric mucosa

Cc1ccccc1NC(=O)Cn1cnc2c(cnn2-c2ccccc2)c1=O [Compound 5e, 2-(4-Oxo-1-Phenyl-1,4-Dihydro-5H-Pyrazolo[3,4-d]Pyrimidin-5-yl)-N-(o-Tolyl) Acetamide]
inhibitory activity on COX-2 (human recombinant COX-2): no inhibitory activity | inhibitory activity on COX-1 (COX-1): no inhibitory activity

COc1ccc2c(c1)c(CC(=O)O)c(C)n2C(=O)c1ccc(Cl)cc1 [Indomethacin, indomethacin, reference compound]
Percentage of inhibition of carrageenan-induced paw edema ([1]; 1 h): 15.89% | Percentage of inhibition of carrageenan-induced paw edema ([1]; 2 h): 29.13% | Percentage of inhibition of carrageenan-induced paw edema ([1]; 3 h, 50 mg/kg): 32.33% | Percentage of inhibition of carrageenan-induced paw edema ([1]; 3 h, listed as indomethacin, 50 mg/kg): 32.33%

Cc1ccc(NC(=O)Cn2cnc3c(cnn3-c3ccccc3)c2=O)cc1 [Compound 5g, 2-(4-Oxo-1-Phenyl-1,4-Dihydro-5H-Pyrazolo[3,4-d]Pyrimidin-5-yl)-N-(p-Tolyl) Acetamide]
inhibitory activity on COX-2 (human recombinant COX-2): no inhibitory activity | inhibitory activity on COX-1 (COX-1): no inhibitory activity

O=C(Cn1cnc2c(cnn2-c2ccccc2)c1=O)Nc1ccc(Cl)cc1 [Compound 5b, N-(4-Chlorophenyl)-2-(4-Oxo-1-Phenyl-1,4-Dihydro-5H-Pyrazolo[3,4-d]Pyrimidin-5-yl) Acetamide]
inhibitory activity on COX-2 (human recombinant COX-2): no inhibitory activity | inhibitory activity on COX-1 (COX-1): no inhibitory activity

CC(=O)c1ccc(NC(=O)Cn2cnc3c(cnn3-c3ccccc3)c2=O)cc1 [Compound 5l, N-(4-Acetylphenyl)-2-(4-Oxo-1-Phenyl-1,4-Dihydro-5H-Pyrazolo[3,4-d]Pyrimidin-5-yl) Acetamide]
inhibitory activity on COX-2 (human recombinant COX-2): no inhibitory activity | inhibitory activity on COX-1 (COX-1): no inhibitory activity
